Measured values from publication PMC8284473, “Preliminary Characterization of NP339, a Novel Polyarginine Peptide with Broad Antifungal Activity” (Antimicrobial Agents and Chemotherapy, 2021).

Experiments:
C. glabrata AM2007/0125 = format: cell-based, Candida glabrata; settings: 30 passages in 0.25× MIC of the same antifungal, passage 0 = 1, average of three independent replicates
Procedure: (§1) Cell growth of all fungi was followed by measuring the optical density at 530 nm (OD530) using the Powerwave XS plate reader (Biotek, Swindon, United Kingdom).
(§2) The fungal inoculum was prepared according to the CLSI standard M27-A3 ([32]). For the analysis, 100 μl of the antifungal stock was added to a 96-well polystyrene plate in triplicate. […] The passaging was repeated 30 times. Every five passages, a full MIC analysis was done, as specified above.

C. auris DSMZ1092 = format: cell-based, Candida auris; settings: 30 passages in 0.25× MIC of the same antifungal, passage 0 = 1, average of three independent replicates
Procedure: as §1, §2

[1] = test system: C. tropicalis AM2005/0568; format: cell-based, Candida tropicalis; settings: 30 passages in 0.25× MIC of the same antifungal, passage 0 = 1, average of three independent replicates
Procedure: as §1, §2

C. auris = experiment: Time-kill assay in culture media; format: cell-based, Candida auris; settings: C. auris (n = 1), inoculum 1 × 10^6 to 5 × 10^6 cells/ml
Procedure: (§3) For Candida spp., the cells were grown for at least 18 to 24 h at 30°C, until visible growth was observed. The cells were then centrifuged and resuspended in sterile distilled H2O and diluted to the 0.5 McFarland standard density using 2× RPMI 1640 medium. The tested antifungals were prepared at twice the required concentration. Then, 1 ml of the inoculum was added to 1 ml of the antifungal solution and incubated at 30°C. Every hour over the course of 8 h, 20 μl of the culture was removed and 10-fold serial dilutions were prepared (from 1 × 10^−1 to 1 × 10^−7). Then, 50 μl of each dilution was plated on SAB agar (Sigma) in triplicate. […] The colonies were counted, and the percentage killed was determined based on the reduction in the number of CFU/ml in the treated samples compared with the vehicle-treated, untreated controls.

A. fumigatus conidia = experiment: Time-kill assay in culture media; format: cell-based, Aspergillus fumigatus; settings: A. fumigatus conidia (n = 2), inoculum 1 × 10^5 cells/ml, antibiotic medium 3
Procedure: For Candida spp., the cells were grown for at least 18 to 24 h at 30°C, until visible growth was observed. The cells were then centrifuged and resuspended in sterile distilled H2O and diluted to the 0.5 McFarland standard density using 2× RPMI 1640 medium. The tested antifungals were prepared at twice the required concentration. Then, 1 ml of the inoculum was added to 1 ml of the antifungal solution and incubated at 30°C. Every hour over the course of 8 h, 20 μl of the culture was removed and 10-fold serial dilutions were prepared (from 1 × 10^−1 to 1 × 10^−7). Then, 50 μl of each dilution was plated on SAB agar (Sigma) in triplicate. The plates were incubated at 30°C until colonies were observed on the control plates with vehicle-treated fungi. The colonies were counted, and the percentage killed was determined based on the reduction in the number of CFU/ml in the treated samples compared with the vehicle-treated, untreated controls.
For A. fumigatus, a subculture was grown on a SAB agar (Sigma) slant for 72 h at 35°C until sporulation. A. fumigatus cells were harvested from the slant into 0.15 M NaCl (Fisher Scientific UK, Ltd.), and conidia were isolated by passing through an EASYStrainer cell sieve (70-μm pore; Greiner Bio-One, Gloucester, United Kingdom) The conidial suspension was diluted to 1 × 10^5 CFU/ml in 2× antibiotic medium 3 (Oxoid). For germling analysis, the conidial suspension was incubated for 8 h at 35°C prior to analysis; for conidial experiments, it was used immediately. The experiment was performed as described for Candida spp.

C. albicans SC5314 = format: cell-based, Candida albicans; settings: 30 passages in 0.25× MIC of the same antifungal, MIC at passage 0 normalized to 1, average of three independent replicates
Procedure: as §1, §2

C. albicans AM2003-0182 [2] = experiment: Transmission electron microscopy of planktonic cells; format: cell-based, Candida albicans; settings: 1× MIC, 30 min exposure
Procedure: For the TEM analysis, an overnight culture of C. albicans AM2003-0182 was diluted to a density of 1 × 10^8 cells/ml in 2× RPMI 1640 medium, and the mixture was incubated at 35°C for 1 h. The cells were then washed three times in sterile water and once in 0.01 M sodium phosphate buffer. […] The cells were then fixed in 2.5% (vol/vol) glutaraldehyde and stored at 4°C before analysis. For TEM analysis, the cells were dehydrated in an ethanol and acetone series before being embedded in […] resin, stained with uranyl acetate/lead citrate stains to improve contrast, sectioned to a 90-nm thickness, and mounted onto copper grids for TEM analysis. TEM micrographs were acquired using a JEM-1400 Plus JEOL transmission electron microscope. Microscopy was performed in the Microscopy and Histology Core Facility at the University of Aberdeen (United Kingdom).

C. albicans AM2003-0182 [3] = experiment: MIC (CLSI) of the agents used for TEM; format: cell-based, Candida albicans; settings: standard CLSI methods
C. albicans = experiment: Time-kill assay in culture media; format: cell-based, Candida albicans; settings: C. albicans (n = 2); final concn 1 mg/liter = 4× MIC; inoculum 1 × 10^6 to 5 × 10^6 cells/ml; RPMI 1640, 30°C
Procedure: as §3, with “The” for “For Candida spp., the cells were grown for at least 18 to 24 h at 30°C, until visible growth was observed. The cells were then centrifuged and resuspended in sterile distilled H2O and diluted to the 0.5 McFarland standard density using 2× RPMI 1640 medium. The”

SMILES | Fold change in antifungal MIC at passage 30 (C. glabrata AM2007/0125) | Fold change in antifungal MIC at passage 30 (C. auris DSMZ1092) | Fold change in antifungal MIC at passage 30 [1] | Time of kill (time taken to kill 3 logs) (C. auris; final concn 32 mg/liter = 16× MIC (amphotericin B)) [h] | Time of kill (time taken to kill 2 logs) (A. fumigatus conidia; final concn 2–8 mg/liter = 4–16× MIC) [h] | Fold change in antifungal MIC at passage 30 (C. albicans SC5314) | Cell destruction (lysis) seen by TEM (C. albicans AM2003-0182 [2]) | MIC (1× MIC, final concentration used for TEM) (C. albicans AM2003-0182 [3]) [µg/mL] | Time of kill (time taken to kill 3 logs) (C. auris; final concn 16 mg/liter = 16× MIC) | Time of kill (time taken to kill 2 logs) (A. fumigatus conidia; final concn 2–32 mg/liter = 1–16× MIC) [h] | Time of kill (time taken to kill 3 logs) (C. albicans) [h]
C[C@@H]1[C@H](O)[C@@H](C)/C=C/C=C/C=C/C=C/C=C/C=C/C=C/[C@H](O[C@@H]2O[C@H](C)[C@@H](O)[C@H](N)[C@@H]2O)C[C@@H]2O[C@](O)(C[C@@H](O)C[C@@H](O)[C@H](O)CC[C@@H](O)C[C@@H](O)CC(=O)O[C@H]1C)C[C@H](O)[C@H]2C(=O)O [Amphotericin B] | 1 | 4 | 4 | 4 | 48 | 4 |  |  |  |  | 
CC[C@H](C)C[C@H](C)CCCCCCCCC(=O)N[C@H]1C[C@@H](O)[C@@H](NCCN)NC(=O)[C@@H]2[C@@H](O)CCN2C(=O)[C@H]([C@H](O)CCN)NC(=O)[C@H]([C@H](O)[C@@H](O)c2ccc(O)cc2)NC(=O)[C@@H]2C[C@@H](O)CN2C(=O)[C@H]([C@@H](C)O)NC1=O [Caspofungin] | 1 | 1 | 8 |  |  | 4 | not observed | 0.5 | 6–24 h | 48 | 4
